The results in this text go back to patent publication US11026972B2, “Methods for generating macrophages with enhanced cancer phagocytosis” (Georgia State University Research Foundation, Inc., priority 2016, dated 2021).

The subject of one assay is PEMs. The assay is described as follows: Cell signaling inhibitors on LPS/cytokine- or PMA-induced PEM phagocytic activation toward RBCs. The assay is classed as cell-based, mouse. The conditions noted are these: for LPS and cytokine-induced phagocytic activation: PEMs treated with LPS and cytokines in the presence of inhibitors. The method, then:
FIGS. 5A-5H include data related to our experiments on the role of Syk in phagocytic activation. […] PEMs were treated with LPS and cytokines in the presence of various inhibitors. After washing, inhibitor-free macrophages were tested for phagocytosis toward RBCs. […] PEMs treated with LPS and activating cytokines, or together with IL-10, were tested for total Syk and phosphorylated Syk (Syk^pY, specific at Y519/520). FIG. 5D describes PMA-induced macrophages phagocytosis toward RBCs. WT and SIRPα^−/− PEMs were treated with PMA (37° C., 30 min) before testing phagocytosis toward RBCs. FIG. 5E is a schematic depiction of PKC-Syk-mediated macrophage phagocytic activation toward self. […] Left: Inhibition of Syk by piceatannol and R406 prevented PMA-induced phagocytic activation. […] Error bars are ±SEM. ***P<0.001 vs. the respective controls. […] LPS-treated WT PEMs were further briefly treated with pervanadate before testing for phagocytosis toward RBCs. Error bars are ±SEM. ***P<0.001 vs. the respective controls. […] Data presented in each panel represent at least three independent experiments with n≥4, if applicable.
Ex vivo macrophage phagocytosis: Mouse spleens were harvested and minced in cold HBSS followed by passing through nylon meshes. The spleen cells in suspensions were collected by centrifugation followed by washing. After lysis of RBC, splenocytes were plated in cell culture dishes in DMEM with 10% FBS and cultured for 2 h followed by removal of non-adherent cells. The adherent cells, ˜70% being macrophages as determined by anti-F4/80 staining, were tested for phagocytosis. For phagocytosis of RBC or other tissue cells, targeted cells were labeled with CFSE prior to addition into the macrophage-containing wells. Macrophages and target cells, at a ratio of 1:5-10 for RBC or 1:1-2 for other cells, were co-incubated for 30 min at 37° C. followed by gently washing. Macrophage phagocytosis of target cells was then analyzed by fluorescence microscopy and/or by FACS. […] Alternatively, the freshly isolated splenocytes in suspension were incubated with CFSE-labeled RBC and other phagocytic targets for 30 min at 37° C. Macrophage phagocytosis was then determined by FACS after labeling macrophages with anti-F4/80. To test phagocytosis of apoptotic cells, B16 cells were irradiated by UV for 150 seconds at 50 J/m^2 strength. Apoptosis was analyzed at 2, 4, 6, 8 and 18 h post UV irradiation by labeling of the cells with anti-phosphatidylserine (PS) antibody (data not shown) or FITC-conjugated annexin V (data not shown). Cells that were confirmed to be apoptotic were trypsinized, labeled with CFSE, and then co-incubated with macrophages for 30 min at 37° C. After gentle washing, phagocytosis was analyzed by fluorescence microscopy and/or FACS. To test phagocytosis of bacteria and the fungal product zymosan, AlexaFluor-conjugated E.coli strain […] (2 μl suspension, ˜2 μg) or zymosan bioparticles (1 μl suspension, ˜2 μg) (both from Invitrogen) were incubated with macrophages for 30 min followed by washing and analyses. Similar procedures were performed to test phagocytosis of macrophages from various sources. To obtain peritoneal macrophages, peritonea of mice were lavaged by sterile PBS followed by centrifugation to collect cells. Cells suspended in DMEM with 10% FBS were then plated in cell culture dishes and incubated for 2 h at 37° C. followed by removal of non-adherent cells. To produce bone marrow-derived macrophages, freshly isolated bone marrow cells were culture in macrophage colony-stimulating factor (MCSF, ˜10 ng/ml)-containing MEM with 10% FBS for five-six days and macrophage differentiation was confirmed by anti-F4/80 staining.

In assay [1] the test system is splenic macrophages, PEMs and BMDMs. The assay is described as follows: Ex vivo macrophage phagocytosis toward RBCs and other self-cells after activation. Format: cell-based, mouse. The conditions noted are these: for ability to induce macrophage phagocytosis toward self: PEM, lack of the CD47-SIRPα-mediated inhibition. The method, then:
FIGS. 3A-3H include data related to our experiments assaying macrophage phagocytosis ex vivo. FIGS. 3A and 3B show macrophage phagocytosis of RBCs. Freshly isolated splenic macrophages (MØ) and peritoneal macrophages (PEM) and in vitro-derived BMDM (bone marrow-derived macrophages) were tested for phagocytosis toward CFSE-labeled Cd47^+ or Cd47^− RBCs. […] FIGS. 3F and 3G illustrate LPS and IL-17-activated PEM phagocytosis toward splenocytes (FIG. 3F), B16, and EL4 (FIG. 3G). Error bars are ±SEM. **P<0.01, ***P<0.001 vs. no treatment controls. […] PEM lavaged without (ctl.) or with Brewer thioglycollate (3%, i.p.) elicitation was tested. Error bars are ±SEM. ***P<0.001 vs. control PEM. Data presented in each panel represent at least three independent experiments with n≥4, if applicable.
FIGS. 4A-4E include data related to our experiments on macrophage phagocytic plasticity. FIG. 4A is a panel of illustrative line graphs showing that IL-10 inhibits macrophage phagocytosis toward “self.” PEMs were treated with LPS and activating cytokines along with various concentrations of IL-10 before testing their ability to phagocytose RBCs. FIG. 4B illustrates the phagocytic plasticity of WT red pulp macrophages. […] Treatments of cultured macrophages with LPS and IL-17 re-elicited their phagocytosis toward RBCs. […] Error bars are ±SEM. ***P<0.001 vs. freshly isolated splenic macrophages. FIG. 4D includes microscopic images of RBC phagocytosis by LPS- and IL-17-treated splenic macrophages. […] WT PEMs treated with LPS or IL-17 were further treated with Cd47^+ RBCs or Cd47-AP (10 min, 37° C.) followed by cell lysis, SIRPα immunoprecipitation, and WB detection of SIRPα phosphorylation (SIRPα^pY) and SHP-1 association. Data presented in each panel represent at least three independent experiments with n≥4, if applicable.
Ex vivo macrophage phagocytosis: Mouse spleens were harvested and minced in cold HBSS followed by passing through nylon meshes. The spleen cells in suspensions were collected by centrifugation followed by washing. After lysis of RBC, splenocytes were plated in cell culture dishes in DMEM with 10% FBS and cultured for 2 h followed by removal of non-adherent cells. The adherent cells, ˜70% being macrophages as determined by anti-F4/80 staining, were tested for phagocytosis. For phagocytosis of RBC or other tissue cells, targeted cells were labeled with CFSE prior to addition into the macrophage-containing wells. Macrophages and target cells, at a ratio of 1:5-10 for RBC or 1:1-2 for other cells, were co-incubated for 30 min at 37° C. followed by gently washing. Macrophage phagocytosis of target cells was then analyzed by fluorescence microscopy and/or by FACS. To better recognize macrophages, macrophages in wells were labeled with an anti-F4/80 or an anti-CD11b antibody. Alternatively, the freshly isolated splenocytes in suspension were incubated with CFSE-labeled RBC and other phagocytic targets for 30 min at 37° C. Macrophage phagocytosis was then determined by FACS after labeling macrophages with anti-F4/80. To test phagocytosis of apoptotic cells, B16 cells were irradiated by UV for 150 seconds at 50 J/m^2 strength. Apoptosis was analyzed at 2, 4, 6, 8 and 18 h post UV irradiation by labeling of the cells with anti-phosphatidylserine (PS) antibody (data not shown) or FITC-conjugated annexin V (data not shown). Cells that were confirmed to be apoptotic were trypsinized, labeled with CFSE, and then co-incubated with macrophages for 30 min at 37° C. After gentle washing, phagocytosis was analyzed by fluorescence microscopy and/or FACS. To test phagocytosis of bacteria and the fungal product zymosan, AlexaFluor-conjugated E.coli strain […] (2 μl suspension, ˜2 μg) or zymosan bioparticles (1 μl suspension, ˜2 μg) (both from Invitrogen) were incubated with macrophages for 30 min followed by washing and analyses. Similar procedures were performed to test phagocytosis of macrophages from various sources. […]

`O=C(O)CN(CCN(CC(=O)O)CC(=O)O)CC(=O)O` [EDTA]: the macrophage phagocytic activation result in the assay with PEMs (presence of EDTA) was “hindered macrophage phagocytic activation”.

`COc1cc2ncnc(Nc3ccc(O)cc3)c2cc1OC` [JAK3 inhibitor I]: in the assay on PEMs, the “LPS and cytokine-induced phagocytic activation” value was “diminished phagocytic activation induced by certain, but not all stimuli”.

For the molecule `Cc1ccc(NCCCc2ccccc2)c(N)c1` [JSH-23], the “LPS and cytokine-induced phagocytic activation” value with PEMs is reported as “diminished phagocytic activation induced by certain, but not all stimuli”.

In the case of `C/C(O)=C(\C#N)C(=O)Nc1cc(Br)ccc1Br` [LFM-13], the “LPS and cytokine-induced phagocytic activation” value in the assay with PEMs is on record as “diminished phagocytic activation induced by certain, but not all stimuli”.

Take `COc1cccc(-c2cc(=O)c3ccccc3o2)c1N` [PD98059]: in the assay on PEMs, the “LPS and cytokine-induced phagocytic activation” value is “diminished phagocytic activation induced by certain, but not all stimuli”.

As for `Cc1ccc(-c2nn(C(C)(C)C)c3ncnc(N)c23)cc1` [PP1], the “LPS and cytokine-induced phagocytic activation” value with PEMs is “diminished phagocytic activation induced by certain, but not all stimuli”.

For `CC(C)(C)n1nc(-c2ccc(Cl)cc2)c2c(N)ncnc21` [PP2], the “LPS and cytokine-induced phagocytic activation” value in the assay on PEMs is reported as “diminished phagocytic activation induced by certain, but not all stimuli”.

For the molecule `COc1cc(Nc2ncc(F)c(Nc3ccc4c(n3)NC(=O)C(C)(C)O4)n2)cc(OC)c1OC` [R406], the PEM activation result in the assay on PEMs (400 nM, all stimuli) is reported as “nearly completely eliminated PEM activation induced by all stimuli”. The “PMA-induced PEM phagocytosis” value with PEMs (Syk inhibition) is listed as “eliminated the PMA-induced PEM phagocytosis”. The “LPS-induced activation of PEM phagocytosis toward RBC” value in the assay with PEMs (dose dependence) is “dose-dependently inhibited”.

In the case of `C[S+]([O-])c1ccc(-c2nc(-c3ccncc3)c(-c3ccc(F)cc3)[nH]2)cc1` (centres unmarked) [SB203580], the “LPS and cytokine-induced phagocytic activation” value in the assay with PEMs was “diminished phagocytic activation induced by certain, but not all stimuli”.

Turning to `COc1ccc2c(c1)CC[C@@H]1[C@@H]2CC[C@]2(C)[C@@H](NCCCCCCN3C(=O)C=CC3=O)CC[C@@H]12` [U73122], the “LPS and cytokine-induced phagocytic activation” value in the assay with PEMs is on record as “diminished phagocytic activation induced by certain, but not all stimuli”.

Take JAK inhibitor I: the “LPS and cytokine-induced phagocytic activation” value in the assay on PEMs is “diminished phagocytic activation induced by certain, but not all stimuli”.

On to pervanadate, for which the Cd47-dependent phagocytic recognition result in assay [1] (LPS-treated WT PEMs briefly treated with pervanadate) was “eliminates Cd47-dependent phagocytic recognition”.

As to tumor necrosis factor-alpha [TNFα], in assay [1], the “ability to induce macrophage phagocytosis toward self” value (“ability” below) is given as “have the ability to induce macrophage phagocytosis toward self”.

B1: IL-1β: recombinant murine cytokine, PeproTech (protein, UniProt P10749 118-269, looked up)
Interleukin-1 beta: VPIRQLHYRLRDEQQKSLVLSDPYELKALHLNGQNINQQVIFSMSFVQGEPSNDKIPVALGLKGKNLYLSCVMKDGTPTLQLESVDPKQYPKKKMEKRFVFNKIEVKSKVEFESAEFPNWYISTSQAEHKPVFLGNNSGQDIIDFTMESVSS
As for B1, the “ability” value in assay [1] is on record as “have the ability to induce macrophage phagocytosis toward self”.

B2: IFNγ: recombinant murine cytokine, PeproTech (protein, UniProt P01580 23-155, looked up)
Interferon gamma: HGTVIESLESLNNYFNSSGIDVEEKSLFLDIWRNWQKDGDMKILQSQIISFYLRLFEVLKDNQAISNNISVIESHLITTFFSNSKAKKDAFMSIAKFEVNNPQVQRQAFNELIRVVHQLLPESSLRKRKRSRC
Regarding B2, in assay [1], the “ability” value was “not”.
